Measurements reported in BindingDB's records for patent US20250082630 (AstraZeneca, 2025).

Columns and labels:
[1] = biological target: Poly [ADP-ribose] polymerase 2 (Homo sapiens, UniProt Q9UGN5); assay: PARP Fluorescence Anisotropy Binding Assay
Experimental: (§1) Recombinant full length 6HIS tagged PARP1 protein was diluted to 6 nM with 50 mM Tris pH 8, 0.001% Triton X100, 10 mM MgCl2, 150 mM NaCl and incubated for four hours with an equivalent volume of 2 nM fluorescent probe diluted with 50 mM Tris pH 8, 0.001% Triton X100, 10 mM MgCl2, 150 mM NaCl. The final DMSO concentration of the probe was kept below 1% (v/v).Recombinant full length PARP2 protein was diluted to 6 nM with 50 mM Tris pH 8, 0.001% Triton X100, 10 mM MgCl2, 150 mM NaCl and incubated for four hours with an equivalent volume of 2 nM fluorescent probe diluted with 50 mM Tris pH 8, 0.001% Triton X100, 10 mM MgCl2, 150 mM NaCl. The final DMSO concentration of the probe was kept below 1% (v/v).Recombinant full length PARP3 protein was diluted to 100 nM with 50 mM Tris pH 8, 0.001% Triton X100, 10 mM MgCl2, 150 mM NaCl and incubated for four hours with an equivalent volume of 6 nM fluorescent probe diluted with 50 mM Tris pH 8, 0.001% Triton X100, 10 mM MgCl2, 150 mM NaCl.

[2] = biological target: Poly [ADP-ribose] polymerase 1 (Homo sapiens, UniProt P09874); assay: PARP Fluorescence Anisotropy Binding Assay
Poly [ADP-ribose] polymerase 1, sequence (P09874 whole entry): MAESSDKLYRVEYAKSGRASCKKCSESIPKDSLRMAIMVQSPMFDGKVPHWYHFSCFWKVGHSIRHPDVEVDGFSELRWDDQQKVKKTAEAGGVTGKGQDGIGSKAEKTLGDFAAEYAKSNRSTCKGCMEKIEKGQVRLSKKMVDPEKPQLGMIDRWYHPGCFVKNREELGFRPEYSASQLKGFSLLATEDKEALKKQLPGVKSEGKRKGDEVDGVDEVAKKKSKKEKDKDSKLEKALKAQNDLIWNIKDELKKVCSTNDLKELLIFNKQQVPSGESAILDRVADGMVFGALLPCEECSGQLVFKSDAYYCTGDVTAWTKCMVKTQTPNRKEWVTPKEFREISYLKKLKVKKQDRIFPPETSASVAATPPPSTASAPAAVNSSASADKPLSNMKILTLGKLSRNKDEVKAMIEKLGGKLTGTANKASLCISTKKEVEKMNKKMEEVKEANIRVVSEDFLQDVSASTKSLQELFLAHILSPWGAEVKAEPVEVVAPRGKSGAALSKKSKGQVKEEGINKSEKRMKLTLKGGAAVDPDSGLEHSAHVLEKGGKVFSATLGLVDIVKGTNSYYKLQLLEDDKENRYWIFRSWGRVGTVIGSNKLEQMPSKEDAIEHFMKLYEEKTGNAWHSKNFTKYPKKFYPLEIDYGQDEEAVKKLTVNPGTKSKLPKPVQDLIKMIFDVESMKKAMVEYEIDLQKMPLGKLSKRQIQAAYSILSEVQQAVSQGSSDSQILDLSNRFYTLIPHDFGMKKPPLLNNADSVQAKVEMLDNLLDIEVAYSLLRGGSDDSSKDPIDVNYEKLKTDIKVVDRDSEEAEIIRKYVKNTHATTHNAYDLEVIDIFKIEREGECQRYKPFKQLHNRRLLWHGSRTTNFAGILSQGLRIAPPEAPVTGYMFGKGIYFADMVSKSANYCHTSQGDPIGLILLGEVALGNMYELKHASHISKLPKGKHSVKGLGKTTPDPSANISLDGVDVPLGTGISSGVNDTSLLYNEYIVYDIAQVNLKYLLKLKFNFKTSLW
Experimental: as §1

Poly [ADP-ribose] polymerase 2, sequence (Q9UGN5 whole entry): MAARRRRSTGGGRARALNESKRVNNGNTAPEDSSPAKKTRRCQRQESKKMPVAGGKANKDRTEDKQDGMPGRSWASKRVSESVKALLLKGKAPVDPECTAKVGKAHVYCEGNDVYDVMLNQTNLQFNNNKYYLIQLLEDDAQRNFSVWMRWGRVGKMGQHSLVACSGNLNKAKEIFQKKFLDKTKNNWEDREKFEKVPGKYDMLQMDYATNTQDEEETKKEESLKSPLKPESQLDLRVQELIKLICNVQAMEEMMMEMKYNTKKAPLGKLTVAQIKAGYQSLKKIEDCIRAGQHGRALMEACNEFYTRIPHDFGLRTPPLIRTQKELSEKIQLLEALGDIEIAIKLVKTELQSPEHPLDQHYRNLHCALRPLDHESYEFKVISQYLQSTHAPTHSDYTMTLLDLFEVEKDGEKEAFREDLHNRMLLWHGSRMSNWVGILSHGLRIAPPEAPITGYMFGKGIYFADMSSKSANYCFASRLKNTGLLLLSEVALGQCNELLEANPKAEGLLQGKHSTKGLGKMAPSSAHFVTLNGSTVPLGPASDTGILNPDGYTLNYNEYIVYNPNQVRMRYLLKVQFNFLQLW

`CNC(=O)c1ccc(N2CCN(Cc3ccc4nc(OC)c(=O)[nH]c4c3C)CC2)c(F)n1` [US20250082630, Example 58] was tested, and the IC50 [1] was greater than 100000 nM and the IC50 [2] was 8 nM.
